Results as given in the NIST ThermoML archive (doi:10.1021/je200811n).
Numbers after ± are expanded uncertainties.

Details: Hot wire method

F/C=C/C(F)(F)F [trans-1,3,3,3-tetrafluoropropene]
Details	thermal conductivity [W/m/K]
312.25 K, 581 kPa, Gas	0.01478 ± 0.0005
312.31 K, 325 kPa, Gas	0.01497 ± 0.0005
312.4 K, 200 kPa, Gas	0.01456 ± 0.00049
312.41 K, 431 kPa, Gas	0.01481 ± 0.0005
312.43 K, 101 kPa, Gas	0.0144 ± 0.0005
312.48 K, 326 kPa, Gas	0.01471 ± 0.0005
312.57 K, 582 kPa, Gas	0.01477 ± 0.0005
312.62 K, 200 kPa, Gas	0.0149 ± 0.0005
312.73 K, 430 kPa, Gas	0.01467 ± 0.0005
312.8 K, 102 kPa, Gas	0.01504 ± 0.00051
312.83 K, 325 kPa, Gas	0.01474 ± 0.0005
312.92 K, 584 kPa, Gas	0.01483 ± 0.0005
312.98 K, 200 kPa, Gas	0.01488 ± 0.0005
313.1 K, 428 kPa, Gas	0.01481 ± 0.0005
313.2 K, 102 kPa, Gas	0.01509 ± 0.00051
313.2 K, 325 kPa, Gas	0.01472 ± 0.0005
313.27 K, 585 kPa, Gas	0.01483 ± 0.0005
313.39 K, 200 kPa, Gas	0.01487 ± 0.0005
313.49 K, 429 kPa, Gas	0.01476 ± 0.0005
313.6 K, 325 kPa, Gas	0.01477 ± 0.0005
313.64 K, 102 kPa, Gas	0.01508 ± 0.00051
313.67 K, 586 kPa, Gas	0.01487 ± 0.0005
313.81 K, 200 kPa, Gas	0.01496 ± 0.0005
313.88 K, 428 kPa, Gas	0.01479 ± 0.0005
314.02 K, 325 kPa, Gas	0.01482 ± 0.0005
314.08 K, 101 kPa, Gas	0.01511 ± 0.00051
314.25 K, 200 kPa, Gas	0.01496 ± 0.0005
314.56 K, 101 kPa, Gas	0.01518 ± 0.00051
320.95 K, 10241 kPa, Liquid	0.07419 ± 0.00082
320.95 K, 15330 kPa, Liquid	0.07758 ± 0.00086
321 K, 1074 kPa, Liquid	0.06717 ± 0.00076
321 K, 15328 kPa, Liquid	0.07747 ± 0.00086
321 K, 15398 kPa, Liquid	0.07709 ± 0.00085
321 K, 21637 kPa, Liquid	0.08122 ± 0.00089
321.01 K, 5363 kPa, Liquid	0.07064 ± 0.00079
321.01 K, 10238 kPa, Liquid	0.07408 ± 0.00082
321.06 K, 1073 kPa, Liquid	0.06692 ± 0.00075
321.06 K, 15400 kPa, Liquid	0.07715 ± 0.00085
321.06 K, 21630 kPa, Liquid	0.08106 ± 0.00089
321.08 K, 5360 kPa, Liquid	0.07051 ± 0.00078
321.23 K, 96 kPa, Gas	0.01565 ± 0.00053
321.24 K, 193 kPa, Gas	0.01579 ± 0.00053
321.26 K, 302 kPa, Gas	0.01598 ± 0.00054
321.31 K, 15324 kPa, Liquid	0.07738 ± 0.00087
321.32 K, 10235 kPa, Liquid	0.07406 ± 0.00083
321.34 K, 21627 kPa, Liquid	0.08112 ± 0.00089
321.35 K, 1071 kPa, Liquid	0.06648 ± 0.00075
321.36 K, 15404 kPa, Liquid	0.0766 ± 0.00088
321.37 K, 5451 kPa, Liquid	0.07074 ± 0.00079
321.39 K, 15326 kPa, Liquid	0.07727 ± 0.00086
321.4 K, 5358 kPa, Liquid	0.07043 ± 0.00078
321.42 K, 10233 kPa, Liquid	0.07383 ± 0.00082
321.43 K, 1070 kPa, Liquid	0.06675 ± 0.00075
321.43 K, 21621 kPa, Liquid	0.08087 ± 0.00089
321.44 K, 5449 kPa, Liquid	0.07064 ± 0.00079
321.45 K, 96 kPa, Gas	0.01549 ± 0.00052
321.45 K, 15400 kPa, Liquid	0.07716 ± 0.00085
321.46 K, 193 kPa, Gas	0.01564 ± 0.00053
321.48 K, 301 kPa, Gas	0.01576 ± 0.00053
321.5 K, 5355 kPa, Liquid	0.07013 ± 0.00078
321.69 K, 96 kPa, Gas	0.01537 ± 0.00052
321.69 K, 193 kPa, Gas	0.01553 ± 0.00052
321.69 K, 301 kPa, Gas	0.01571 ± 0.00053
321.73 K, 15326 kPa, Liquid	0.07718 ± 0.00085
321.74 K, 21616 kPa, Liquid	0.08084 ± 0.00089
321.76 K, 10233 kPa, Liquid	0.07335 ± 0.00081
321.77 K, 1068 kPa, Liquid	0.06659 ± 0.00075
321.77 K, 5449 kPa, Liquid	0.07051 ± 0.00078
321.77 K, 15389 kPa, Liquid	0.07714 ± 0.00086
321.85 K, 15325 kPa, Liquid	0.077 ± 0.00086
321.85 K, 21616 kPa, Liquid	0.08065 ± 0.00089
321.86 K, 5352 kPa, Liquid	0.07024 ± 0.00078
321.87 K, 1067 kPa, Liquid	0.06647 ± 0.00074
321.87 K, 5446 kPa, Liquid	0.07039 ± 0.00078
321.88 K, 10232 kPa, Liquid	0.07374 ± 0.00082
321.89 K, 15379 kPa, Liquid	0.07673 ± 0.00085
321.93 K, 96 kPa, Gas	0.01526 ± 0.00051
321.93 K, 301 kPa, Gas	0.0156 ± 0.0005
321.94 K, 193 kPa, Gas	0.01541 ± 0.00052
321.94 K, 862 kPa, Gas	0.01585 ± 0.00053
321.98 K, 5353 kPa, Liquid	0.07002 ± 0.00078
322.01 K, 717 kPa, Gas	0.01564 ± 0.00053
322.18 K, 301 kPa, Gas	0.01554 ± 0.00052
322.19 K, 193 kPa, Gas	0.01534 ± 0.00052
322.19 K, 21613 kPa, Liquid	0.0806 ± 0.00089
322.2 K, 15324 kPa, Liquid	0.07701 ± 0.00087
322.23 K, 861 kPa, Gas	0.01583 ± 0.00053
322.24 K, 5447 kPa, Liquid	0.07031 ± 0.00078
322.25 K, 432 kPa, Gas	0.01554 ± 0.00052
322.25 K, 1068 kPa, Liquid	0.06595 ± 0.00074
322.25 K, 10235 kPa, Liquid	0.0737 ± 0.00082
322.25 K, 15372 kPa, Liquid	0.07646 ± 0.00086
322.27 K, 889 kPa, Gas	0.01589 ± 0.00053
322.32 K, 715 kPa, Gas	0.01567 ± 0.00053
322.32 K, 21607 kPa, Liquid	0.08044 ± 0.00089
322.34 K, 302 kPa, Gas	0.01575 ± 0.00053
322.34 K, 15322 kPa, Liquid	0.0768 ± 0.00086
322.35 K, 5442 kPa, Liquid	0.07009 ± 0.00078
322.37 K, 5357 kPa, Liquid	0.07003 ± 0.00078
322.38 K, 1067 kPa, Liquid	0.06625 ± 0.00074
322.4 K, 10234 kPa, Liquid	0.07347 ± 0.00082
322.48 K, 588 kPa, Gas	0.01563 ± 0.00053
322.52 K, 5368 kPa, Liquid	0.06983 ± 0.00078
322.55 K, 859 kPa, Gas	0.01582 ± 0.00053
322.57 K, 432 kPa, Gas	0.01556 ± 0.00052
322.58 K, 886 kPa, Gas	0.01586 ± 0.00053
322.65 K, 713 kPa, Gas	0.01571 ± 0.00053
322.69 K, 301 kPa, Gas	0.01554 ± 0.00052
322.7 K, 21605 kPa, Liquid	0.08035 ± 0.00089
322.73 K, 15322 kPa, Liquid	0.07671 ± 0.00085
322.75 K, 5443 kPa, Liquid	0.07003 ± 0.00079
322.79 K, 1065 kPa, Liquid	0.06618 ± 0.00074
322.8 K, 10233 kPa, Liquid	0.07327 ± 0.00081
322.81 K, 193 kPa, Gas	0.01577 ± 0.00053

Details	thermal conductivity [W/m/K]
313.15 K, Liquid	0.06932 ± 0.00048
